Experimental data as given in patent publication US11407736B2 (priority 2019, dated 2022).
Counter-ions that a name gives are not always drawn. Like-named read-outs stand apart in the source and are kept apart here.

Tests used:
RIPK1 = RIPK1 (Homo sapiens (Human), UniProt Q13546); assay: RIPK1 ADP-Glo biochemical kinase assay
Protocol: The final reaction volume was 5.0ul.
Adding 5 μl of ADP-Glo™ terminated the reaction.

L929 cells = assay: L929 cell necroptosis assay (TNFa + zVAD, CellTiter-Glo); type: cell-based, murine
In short: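 Murine L929 cells, plated 18 h beforehand at 10K cells/well in RPMI 1640 with 10% FBS, were switched to medium containing 40 uM zVAD-fmk and given compound from 4-fold serial dilutions. Viability after 18 h of TNFa stimulation at 37° C was read by CellTiter-Glo luminescence.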

U937 cells = assay: U937 cell necroptosis assay (TNFa + zVAD, CellTiter-Glo); type: cell-based, human
In short: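 Human U937 and murine L929 cells in RPMI 1640/10% FBS were pre-incubated 1 h at 37 °C with serially diluted compound plus zVAD-fmk (U937 plated with 60 uM, L929 medium with 40 uM), then stimulated with 2 ng/mL TNFa (final). Viability read by CellTiter-Glo luminescence after 18 h.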

[1] = read-out: RIPK1 ADP-Glo Kinase (IC50)
[2] = Mus musculus, L929, L929 cells, TNFa + zVAD, read-out: L929-CTG-recovery, L929, TNFa + zVAD (IC50)
[3] = Homo sapiens, U-937, U937 cells, TNFa + zVAD, read-out: U937 Zvad TNF CTG Recovery, U937, TNFa + zVAD (IC50)
[4] = Mus musculus, L929, read-out: L929-CTG-recovery, L929, TNFa + zVAD (IC50), L929 cells, TNFa + zVAD
[5] = Homo sapiens, U-937, read-out: U937 Zvad TNF CTG Recovery, U937, TNFa + zVAD (IC50), U937 cells, TNFa + zVAD

Chain of RIPK1 (Q13546 whole entry, species assumed): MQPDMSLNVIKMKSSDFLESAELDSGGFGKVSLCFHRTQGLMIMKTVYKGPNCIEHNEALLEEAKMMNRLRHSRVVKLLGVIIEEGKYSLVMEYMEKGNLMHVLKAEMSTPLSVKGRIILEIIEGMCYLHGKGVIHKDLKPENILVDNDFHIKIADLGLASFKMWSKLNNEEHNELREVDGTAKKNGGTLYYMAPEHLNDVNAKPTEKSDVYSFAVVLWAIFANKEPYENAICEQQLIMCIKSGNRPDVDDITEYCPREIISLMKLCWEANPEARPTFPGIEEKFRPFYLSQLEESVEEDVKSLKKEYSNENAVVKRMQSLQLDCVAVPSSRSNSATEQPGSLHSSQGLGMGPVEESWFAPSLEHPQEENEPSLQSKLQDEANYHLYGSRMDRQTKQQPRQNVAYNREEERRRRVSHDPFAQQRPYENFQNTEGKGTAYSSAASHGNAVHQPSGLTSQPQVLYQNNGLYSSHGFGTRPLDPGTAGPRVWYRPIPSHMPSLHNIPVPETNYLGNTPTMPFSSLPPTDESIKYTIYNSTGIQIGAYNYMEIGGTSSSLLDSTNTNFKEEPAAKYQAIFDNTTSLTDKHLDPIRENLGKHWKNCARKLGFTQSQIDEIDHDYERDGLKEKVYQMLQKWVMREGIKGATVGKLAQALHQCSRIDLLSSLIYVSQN

IC50 (RIPK1; [1]) | SMILES | IC50 (L929 cells; [2]) | IC50 (U937 cells; [3]) | also measured
27.9 nM | CN1C(=O)[C@@H](NC(=O)c2cc(Oc3ccccc3)ccn2)COc2ccc(C#CC3(O)CCS(=O)(=O)CC3)cc21 [Compound I-207, (S)—N-(7-((4-Hydroxy-1,1-dioxidotetrahydro-2H-thiopyran-4-yl)ethynyl)-5-methyl-4-oxo-2,3,4,5-tetrahydrobenzo[b][1,4]oxazepin-3-yl)-4-phenoxypicolinamide] | 116 nM | 0.5 nM | 
88.7 nM | CN1C(=O)[C@@H](NC(=O)c2n[nH]c(Cc3ccccc3)n2)COc2ccc(CN3CCn4nc(C(F)(F)F)nc4C3)cc21 [Compound I-40, (S)-5-benzyl-N-(5-methyl-4-oxo-7-((2-(trifluoromethyl)-5,6-dihydro-[1,2,4]triazolo[1,5-a]pyrazin-7(8H)-yl)methyl)-2,3,4,5-tetrahydrobenzo[b][1,4]oxazepin-3-yl)-1H-1,2,4-triazole-3-carboxamide] | 0.3 nM | 2.3 nM | 
33.7 nM | CN1C(=O)[C@@H](NC(=O)c2n[nH]c(Cc3ccccc3)n2)COc2ccc(C#CC3(O)CCOCC3)cc21 [Compound I-55, (S)-5-benzyl-N-(7-((4-hydroxytetrahydro-2H-pyran-4-yl)ethynyl)-5-methyl-4-oxo-2,3,4,5-tetrahydrobenzo[b][1,4]oxazepin-3-yl)-1H-1,2,4-triazole-3-carboxamide] | 0.6 nM | 2 nM | 
 | CN1C(=O)[C@@H](NC(=O)c2cc(Oc3ccccc3)ccn2)COc2ccc(C#CC(C)(C)CO)cc21 [Compound I-109, (S)—N-(7-(4-hydroxy-3,3-dimethylbut-1-yn-1-yl)-5-methyl-4-oxo-2,3,4,5-tetrahydrobenzo[b][1,4]oxazepin-3-yl)-4-phenoxypicolinamide] | 24.3 nM | 0.4 nM | IC50 (RIPK1): 32.1 nM
26.7 nM | CN1C(=O)[C@@H](NC(=O)c2cc(Oc3ccccc3)ccn2)COc2ccc(C#CC3(O)CNC3)cc21 [Compound I-136, (S)—N-(7-((3-hydroxyazetidin-3-yl)ethynyl)-5-methyl-4-oxo-2,3,4,5-tetrahydrobenzo[b][1,4]oxazepin-3-yl)-4-phenoxypicolinamide] | 4970 nM | 15.2 nM | 
51.8 nM | CN1C(=O)[C@@H](NC(=O)c2cc(Oc3ccc(C#N)cc3)ccn2)COc2ccc(C#CC(C)(C)O)cc21 [II-18, (S)-4-(4-cyanophenoxy)-N-(7-(3-hydroxy-3-methylbut-1-yn-1-yl)-5-methyl-4-oxo-2,3,4,5-tetrahydrobenzo[b][1,4]oxazepin-3-yl)picolinamide] | 6640 nM | 286 nM | 
36.4 nM | CN1C(=O)[C@@H](NC(=O)c2ncn(Cc3ccccc3)n2)COc2ccc(CN3CCn4nc(C(F)(F)F)nc4C3)cc21 [Compound I-39, (S)-1-benzyl-N-(5-methyl-4-oxo-7-((2-(trifluoromethyl)-5,6-dihydro-[1,2,4]triazolo[1,5-a]pyrazin-7(8H)-yl)methyl)-2,3,4,5-tetrahydrobenzo[b][1,4]oxazepin-3-yl)-1H-1,2,4-triazole-3-carboxamide] | 0.4 nM | 2.7 nM | 
24 nM | CN1C(=O)[C@@H](NC(=O)c2cc(Oc3cccc(F)c3)ccn2)COc2ccc(C#CC3(O)COC3)cc21 [Compound I-115, (S)-4-(3-fluorophenoxy)-N-(7-((3-hydroxyoxetan-3-yl)ethynyl)-5-methyl-4-oxo-2,3,4,5-tetrahydrobenzo[b][1,4]oxazepin-3-yl)picolinamide] | 49.1 nM | 0.8 nM | 
54.6 nM | CN1C(=O)[C@@H](NC(=O)c2n[nH]c(Cc3ccccc3)n2)COc2ccc(C#C[C@@]3(O)CO[C@@H]4[C@@H](O)CO[C@@H]43)cc21 [Compound I-75, 5-benzyl-N—((S)-7-(((3R,3aS,6S,6aR)-3,6-dihydroxyhexahydrofuro[3,2-b]furan-3-yl)ethynyl)-5-methyl-4-oxo-2,3,4,5-tetrahydrobenzo[b][1,4]oxazepin-3-yl)-1H-1,2,4-triazole-3-carboxamide] | 1.4 nM | 8.3 nM | 
 | CN1C(=O)[C@@H](NC(=O)c2cc(Oc3ccccc3)ccn2)COc2ccc(C#CC(C)(C)N)cc21 [Compound I-167, (S)—N-(7-(3-amino-3-methylbut-1-yn-1-yl)-5-methyl-4-oxo-2,3,4,5-tetrahydrobenzo[b][1,4]oxazepin-3-yl)-4-phenoxypicolinamide hydrochloride] |  |  | IC50 (RIPK1; hydrochloride, read-out: RIPK1 ADP-Glo Kinase (IC50)): 17.5 nM; IC50 (L929 cells; read-out: L929-CTG-recovery, L929, TNFa + zVAD (IC50), L929 cells, TNFa + zVAD, hydrochloride): 1210 nM; IC50 (U937 cells; read-out: U937 Zvad TNF CTG Recovery, U937, TNFa + zVAD (IC50), U937 cells, TNFa + zVAD, hydrochloride): 5.3 nM
27.5 nM | CN1C(=O)[C@@H](NC(=O)c2cc(Oc3ccccc3)ccn2)COc2ccc(C#CCO)cc21 [II-35, (S)—N-(7-(3-hydroxyprop-1-yn-1-yl)-5-methyl-4-oxo-2,3,4,5-tetrahydrobenzo[b][1,4]oxazepin-3-yl)-4-phenoxypicolinamide] | 164 nM | 0.7 nM | 
23.4 nM | CN1C(=O)[C@@H](NC(=O)c2cc(Oc3ccccc3)ccn2)COc2ccc(C#CCN3CCCC3)cc21 [Compound I-116, (S)—N-(5-methyl-4-oxo-7-(3-(pyrolidin-1-yl)prop-1-yn-1-yl)-2,3,4,5-tetrahydrobenzo[b][1,4]oxazepin-3-yl)-4-phenoxypicolinamide] | 136 nM | 0.7 nM | 
52.7 nM | CN1C(=O)[C@@H](NC(=O)c2n[nH]c(Cc3ccccc3F)n2)COc2ccc(C#CC(C)(C)C)cc21 [Compound I-89, (S)—N-(7-(3,3-dimethylbut-1-yn-1-yl)-5-methyl-4-oxo-2,3,4,5-tetrahydrobenzo[b][1,4]oxazepin-3-yl)-5-(2-fluorobenzyl)-1H-1,2,4-triazole-3-carboxamide] | 0.7 nM | 4.5 nM | 
446 nM | CN1C(=O)[C@@H](NC(=O)c2cc(Oc3ccccc3)ccn2)COc2ccc(C#CC3(O)CCN(C(=O)c4cc(Oc5ccccc5)ccn4)CC3)cc21 [Compound I-131, (S)—N-(7-((4-hydroxy-1-(4-phenoxypicolinoyl)piperidin-4-yl)ethynyl)-5-methyl-4-oxo-2,3,4,5-tetrahydrobenzo[b][1,4]oxazepin-3-yl)-4-phenoxypicolinamide] | 65.8 nM | 3.7 nM | 
14.5 nM | CN1C(=O)[C@@H](NC(=O)c2ncn(Cc3ccccc3)n2)COc2ccc(CCC(=O)N3CCCC3)cc21 [Compound I-33, (S)-1-benzyl-N-(5-methyl-4-oxo-7-(3-oxo-3-(pyrrolidin-1-yl)propyl)-2,3,4,5-tetrahydrobenzo[b][1,4]oxazepin-3-yl)-1H-1,2,4-triazole-3-carboxamide] | 1230 nM | 1.5 nM | 
124 nM | CN1C(=O)[C@@H](NC(=O)c2cc(Oc3ccccc3)ccn2)COc2ccc(C#CC(C)(C)CN3CCOCC3)cc21 [Compound I-140, (S)—N-(7-(3,3-dimethyl-4-morpholinobut-1-yn-1-yl)-5-methyl-4-oxo-2,3,4,5-tetrahydrobenzo[b][1,4]oxazepin-3-yl)-4-phenoxypicolinamide] | 109 nM | 4.6 nM | 
23.1 nM | CN1C(=O)[C@@H](NC(=O)c2cc(Oc3cccc(F)c3)ccn2)COc2ccc(C#CC(C)(C)O)cc21 [Compound I-107, (S)-4-(3-fluorophenoxy)-N-(7-(3-hydroxy-3-methylbut-1-yn-1-yl)-5-methyl-4-oxo-2,3,4,5-tetrahydrobenzo[b][1,4]oxazepin-3-yl)picolinamide] | 161 nM | 1.3 nM | 

SMILES | IC50 (RIPK1; [1]) | IC50 (L929 cells; [2]) | IC50 (U937 cells; [3]) | also measured
CN1C(=O)[C@@H](NC(=O)c2cc(Oc3ccccc3)ccn2)COc2ccc(C#CC3(O)CN(C(=O)C(F)(F)F)C3)cc21 [Compound I-151, (S)—N-(7-((3-hydroxy-1-(2,2,2-trifluoroacetyl)azetidin-3-yl)ethynyl)-5-methyl-4-oxo-2,3,4,5-tetrahydrobenzo[b][1,4]oxazepin-3-yl)-4-phenoxypicolinamide] | 55.4 nM |  |  | IC50 (L929 cells; [4]): 1080 nM; IC50 (U937 cells; [5]): 17 nM
CN1C(=O)[C@@H](NC(=O)c2ncn(Cc3ccccc3)n2)COc2ccc(C#CC(C)(C)C)cc21 [Compound I-48, (S)-1-benzyl-N-(7-(3,3-dimethylbut-1-yn-1-yl)-5-methyl-4-oxo-2,3,4,5-tetrahydrobenzo[b][1,4]oxazepin-3-yl)-1H-1,2,4-triazole-3-carboxamide] | 62.4 nM |  | 1.6 nM | IC50 (L929 cells; Mus musculus, L929 cells, TNFa + zVAD, read-out: L929-CTG-recovery, L929, TNFa + zVAD (IC50)): 0.5 nM
CN1C(=O)[C@@H](NC(=O)c2nnc(Cc3ccccc3)o2)COc2ccc(N3CC4(CCOCC4)C3)cc21 [Compound I-236, (S)-5-benzyl-N-(5-methyl-4-oxo-7-(7-oxa-2-azaspiro[3.5]nonan-2-yl)-2,3,4,5-tetrahydrobenzo[b][1,4]oxazepin-3-yl)-1,3,4-oxadiazole-2-carboxamide] | 55.9 nM |  |  | IC50 (L929 cells; [4]): 258 nM; IC50 (U937 cells; [5]): 6.6 nM
